# Laboratory results as given in patent US8058306B2, “Phenyl pyrrole aminoguanidine derivatives” (Action Pharma A/S, priority 2006, dated 2011).
# Target: T1, murine MC1 receptor (Mus musculus, UniProt Q01727)
# T1 construct: murine B16-F1 melanoma cells expressing MC1, but not other MC receptors, were used; endogenous in cells; host or cells: murine B16-F1 melanoma cells
# Assay: [125I]-NDP-MSH radio-ligand binding, MC1 receptor (B16-F1 melanoma cells)
# Settings: 90 min/22° C.
# Method: Determination of binding affinities for MC receptors was performed by [^125I]-[Nle4,D-Phe7]α-MSH ([^125I]-NDP-MSH) radio-ligand binding. In short, murine B16-F1 melanoma cells expressing MC1, but not other MC receptors, were used for binding affinity studies against the murine MC1 receptor (Siegrist et al.; 1988, J. Recept. Res., 8(1-4):323-43). For human MC3, MC4 and MC5 receptor affinities human recombinant CHO cells were used (Schioth et al. 1997, Neuropeptides 31:565-71, 1997). Cells were suspended in HEPES buffer and by use of microwell plates radio-ligands, as well as test compound, in the concentration range of 10^−10 to 10^−6 were added. After incubation at 37° C. (22° C. for the MC1 receptor assay) separation of bound and free [^125I]-NDP-MSH was done by multiple washings with buffer.
# The results were expressed as a percent of control specific binding obtained in the presence of the test compounds. The IC50 values (concentration causing a half-maximal inhibition of control specific binding) and Hill coefficients (nH) were determined by non-linear regression analysis of the competition curves using Hill equation curve fitting. The inhibition constants (Ki) were calculated from the Cheng Prusoff equation (Ki=IC50/(1+(L/KD)), where L=concentration of radio-ligand in the assay, and KD=affinity of the radio-ligand for the receptor).
# T1 sequence (Q01727 whole entry): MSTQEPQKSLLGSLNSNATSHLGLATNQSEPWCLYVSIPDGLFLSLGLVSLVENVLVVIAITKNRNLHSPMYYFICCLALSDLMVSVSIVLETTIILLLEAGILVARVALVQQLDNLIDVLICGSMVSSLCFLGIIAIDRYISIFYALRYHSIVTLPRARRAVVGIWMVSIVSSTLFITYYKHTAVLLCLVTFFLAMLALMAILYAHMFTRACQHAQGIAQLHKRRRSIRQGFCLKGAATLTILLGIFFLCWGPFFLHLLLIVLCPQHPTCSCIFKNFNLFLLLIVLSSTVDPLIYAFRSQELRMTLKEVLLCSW
smiles,measurement,value
"N=C(N)NN=CC=Cc1cccn1-c1ccc(Cl)cc1 [Compound 1, [1-(4-chlorophenyl)-1H-pyrrol-2-yl-allylideneamino]guanidinium acetate]",Ki,88 nM
"N=C(N)NN=CC=Cc1cccn1-c1ccccc1[N+](=O)[O-] [Compound 2, [1-(2-nitrophenyl)-1H-pyrrol-2-yl-allylideneamino]guanidinium acetate]",Ki,360 nM
"N=C(N)NN=CC=Cc1cccn1-c1ccccc1Br [Compound 3, [1-(2-bromophenyl)-1H-pyrrol-2-yl-allylideneamino]guanidinium acetate]",Ki,2.6 nM
